Test results from ChEMBL document CHEMBL1201862, “PubChem BioAssay data set” (2004).
Calls of active or inactive are those of the source.

Legend:
[1] = biological target: fMet-Leu-Phe receptor (Homo sapiens, UniProt P21462); assay: FPR ligands, dose response (AID 519); assay type: functional
[2] = biological target: Disintegrin and metalloproteinase domain-containing protein 17 (Homo sapiens, UniProt P78536); assay: exosite inhibitors of ADAM17, dose response, biochemical (AID 743260)
[3] = ADAM10 protease inhibitors, dose response, selectivity assay for ADAM17 exosite inhibitor project, biochemical, FRET peptide substrate, recombinant human ADAM10 (AID 743259);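 also: ADAM10 enzyme cleaving a FRET peptide substrate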
[4] = A549 cell cytotoxicity, dose response, cytotoxicity control, plate reader, cherry-pick, antagonist series (AID 743412); assay type: functional, cell-based
[5] = HEK293 cell cytotoxicity, dose response, cytotoxicity control, plate reader, cherry-picked samples (AID 743446); assay type: functional, cell-based
[6] = human group III sPLA2 inhibitors, dose response, biochemical, QFRET, IC50 (AID 743457);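 also: green fluorescence rise as the enzyme cleaves BODIPY PC-A2 in liposomes; potency for inhibition of the enzyme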
[7] = biological target: Kallikrein-7 (Homo sapiens, UniProt P49862); assay: Fluorescence Intensity-based biochemical primary high throughput dose response assay to identify activators of kallikrein-7 (K7) zymogen.
[8] = biological target: Mitogen-activated protein kinase 10 (Homo sapiens, UniProt P53779); assay: Dose response biochemical screening assay for inhibitors of c-Jun N-Terminal Kinase 3 (JNK3). [Related pubchem assays: 746 ]
[9] = cells
[10] = biological target: Major prion protein (Homo sapiens, UniProt P04156); assay type: functional, cell-based
[11] = Jurkat T cell cytotoxicity, dose response, cytotoxicity control for P. falciparum gametocyte viability project, luminescence (AID 1117277); assay type: functional, cell-based;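 also: potency reflects loss of cellular ATP meaning fewer viable cells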
[12] = P. falciparum late gametocyte killing, dose response, luminescence (AID 1117278); assay type: functional, cell-based;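 also: gametocytes exposed to compound for 24 hours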
[13] = biological target: T1, Oxysterols receptor LXR-beta (Homo sapiens, UniProt P55055); assay: LXR agonists, Gal4 luciferase reporter, dose response, counter-screen for ssDAF-12 agonist project, cell-based, luminescence, HEK293, S. stercoralis campaign (AID 720737); assay type: functional; settings: read-out: IC50 (the source's name)
T1 sequence (P55055 whole entry): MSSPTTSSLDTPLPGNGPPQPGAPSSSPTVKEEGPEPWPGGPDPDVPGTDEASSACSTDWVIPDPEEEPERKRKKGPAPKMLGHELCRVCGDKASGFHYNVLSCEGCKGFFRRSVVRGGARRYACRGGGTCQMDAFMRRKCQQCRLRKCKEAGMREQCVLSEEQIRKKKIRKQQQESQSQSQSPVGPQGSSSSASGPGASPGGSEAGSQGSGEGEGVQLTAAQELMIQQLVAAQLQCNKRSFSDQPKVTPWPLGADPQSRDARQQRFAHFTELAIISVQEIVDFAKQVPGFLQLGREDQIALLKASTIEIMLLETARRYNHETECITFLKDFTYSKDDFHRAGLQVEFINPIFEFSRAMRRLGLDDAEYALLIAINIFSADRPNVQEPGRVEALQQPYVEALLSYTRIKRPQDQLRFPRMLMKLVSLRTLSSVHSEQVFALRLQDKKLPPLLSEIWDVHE

[14] = Luminescence-based cell-based high throughput dose response assay to identify activators of the DAF-12 from the parasite S. stercoralis (ssDAF-12).; assay type: functional
[15] = biological target: Peroxisome proliferator-activated receptor gamma/Nuclear receptor coactivator 3 (Homo sapiens, UniProt P37231); assay: TR-FRET dose response biochemical High Throughput Screening assay for agonists of the steroid receptor coactivator 3 (SRC-3) recruitment by the peroxisome proliferator-activated receptor gamma (PPAR gamma): non-selective agonists. [Related pubchem assays: 1301 (Confirmation screen.), 1048 (Primary screen.)]; assay type: functional
[16] = biological target: Peroxisome proliferator-activated receptor gamma/Nuclear receptor coactivator 2 (Homo sapiens, UniProt P37231); assay: (§1) TR-FRET dose response biochemical High Throughput Screening assay for agonists of the steroid receptor coactivator 2 (SRC-2) recruitment by the peroxisome proliferator-activated receptor gamma (PPAR gamma): non-selective agonists. [Related pubchem assays: 1297, 1032 ]; assay type: functional
[17] = biological target: Peroxisome proliferator-activated receptor gamma/Nuclear receptor coactivator 1 (Homo sapiens, UniProt P37231); assay: as §1, with “1 (SRC-1)” for “2 (SRC-2)”, “assays (depositor defined):AID1300, AID1808, AID504735, AID631]” for “assays: 1297, 1032 ]”; assay type: protein assay
[18] = cells; settings: A549
[19] = biological target: T2, Corticotropin-releasing factor receptor 2/Corticotropin-releasing factor-binding protein (Homo sapiens, UniProt P24387+Q13324); assay: Dose Response confirmation of uHTS hits for small molecule antagonists of the CRF-binding protein and CRF-R2 receptor complex.; assay type: functional; settings: read-out: IC50_Mean
T2 sequence (Q13324 whole entry): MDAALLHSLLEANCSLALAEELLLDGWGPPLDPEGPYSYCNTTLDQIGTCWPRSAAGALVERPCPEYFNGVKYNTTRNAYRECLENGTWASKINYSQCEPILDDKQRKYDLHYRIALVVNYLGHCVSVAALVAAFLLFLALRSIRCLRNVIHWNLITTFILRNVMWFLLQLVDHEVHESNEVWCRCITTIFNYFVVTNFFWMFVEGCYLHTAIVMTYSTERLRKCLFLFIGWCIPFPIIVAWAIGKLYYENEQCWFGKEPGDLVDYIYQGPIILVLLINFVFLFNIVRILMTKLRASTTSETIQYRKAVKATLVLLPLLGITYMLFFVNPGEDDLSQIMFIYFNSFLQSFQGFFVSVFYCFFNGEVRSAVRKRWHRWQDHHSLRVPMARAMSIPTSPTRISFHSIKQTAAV
T2 sequence (P24387 whole entry): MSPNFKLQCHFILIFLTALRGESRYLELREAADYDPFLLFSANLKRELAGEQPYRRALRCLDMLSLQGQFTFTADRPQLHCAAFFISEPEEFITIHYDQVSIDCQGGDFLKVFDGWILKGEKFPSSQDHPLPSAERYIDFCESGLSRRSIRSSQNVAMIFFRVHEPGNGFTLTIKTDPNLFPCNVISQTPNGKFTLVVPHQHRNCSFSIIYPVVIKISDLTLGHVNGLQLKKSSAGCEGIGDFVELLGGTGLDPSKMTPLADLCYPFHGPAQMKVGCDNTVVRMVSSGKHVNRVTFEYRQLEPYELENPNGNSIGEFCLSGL

[20] = biological target: T2, Corticotropin-releasing factor receptor 2/Corticotropin-releasing factor-binding protein; assay: activators of CRF receptor 2 with binding protein – uHTS hits, confirmation (AID 602473); assay type: functional; settings: read-out: EC50_Mean

Structure (SMILES): COCCCN1C(=O)C(O)=C(C(=O)c2ccco2)C1c1cccc(Br)c1 (stereo unspecified)
- Ki [1]: 31.2 µM (inactive)

Structure (SMILES): CC(=O)n1cc([C@@H]2C=C(C(=O)Nc3ccccc3)O[C@H](OCc3ccc(CO)cc3)C2)c2ccccc21
- IC50 [2]: > 69.5 µM (inactive)
- IC50 [3]: > 69.5 µM (inactive)

Structure (SMILES): O=c1cc(-c2c(F)c(F)c(F)c(F)c2F)oc2ccccc12
- AC50 [4]: 17.4 µM (active)
- AC50 [5]: 37.5 µM (active)

Structure (SMILES): CCOc1ccc(-n2c(N)c(-c3nc4ccccc4[nH]3)sc2=S)cc1
- IC50 [6]: > 122 µM (inactive)

Structure (SMILES): Nc1ccc(Cl)cc1C(=O)OCC(=O)NC1CCS(=O)(=O)C1 (stereo unspecified)
- EC50 [7]: > 7.72 µM (active)

Structure (SMILES): Cc1cc(N2C(=O)C(O)=C(C(=O)c3ccc(F)cc3)C2c2cccc(Br)c2)no1 (stereo unspecified)
- Ki [1]: > 66.7 µM (inactive)

Structure (SMILES): N#Cc1c(O)nc(SCc2ccc(F)cc2)nc1-c1ccco1
- IC50 [8]: 13.6 µM (not active)
- IC50 [9]: > 138 µM (inactive)
- IC50 [10]: 1.02 µM (active)

Structure (SMILES): O=C(NCCc1c[nH]c2ccccc12)c1cnccn1
- IC50 [11]: > 83.3 µM (inactive)
- IC50 [12]: > 109 µM (inactive)
- EC50 [13]: > 67.5 µM (inactive)
- IC50 [14]: > 67.5 µM (inactive)

Structure (SMILES): Cc1ccccc1-c1nnc(S)o1
- IC50 [8]: 55.5 µM (not active)
- EC50 [15]: > 79.4 µM (not active)
- IC50 [9]: > 138 µM (inactive)
- EC50 [16]: 9.69 µM (active)
- EC50 [17]: 71.9 µM (inactive)
- IC50 [10]: 5.75 µM (active)

Structure (SMILES): COc1cc(C2C3=C(CC(C)(C)CC3=O)N(C)C3=C2C(=O)CC(C)(C)C3)cc(Br)c1O
- AC50 [18]: > 52 µM (inactive)

Structure (SMILES): CCCc1n[nH]c(SCc2ccc(Cl)cc2Cl)n1
- IC50 [11]: > 83.3 µM (inactive)
- IC50 [19]: > 47.1 µM (inactive)
- EC50 [20]: > 53 µM (inactive)
- IC50 [12]: > 109 µM (inactive)
